Results from patent US11959083B2, “Immunosuppression-reverting oligonucleotides inhibiting the expression of CD39” (Secarna Pharmaceuticals GmbH & Co. KG, priority 2016, dated 2024).
l = locked nucleic acid (LNA); d = 2'-deoxy (DNA)

Assays:
Type in all cases: cell-based
hCD39 = biological target: T1, hCD39 (Homo sapiens, UniProt P49961); assay: ATP degradation in JIYOYE cells after hCD39 knockdown (ATP Bioluminescence Assay); conditions: for Relative ATP levels in supernatants of JIYOYE cells 30 minutes after addition of ATP (vs. Medium control): 5 μM oligonucleotide 6 days or 20 μM ARL67156 1 h, 2 μM ATP added
T1 construct: endogenous in cells; host or cells: JIYOYE cells
T1 sequence (P49961 1-510): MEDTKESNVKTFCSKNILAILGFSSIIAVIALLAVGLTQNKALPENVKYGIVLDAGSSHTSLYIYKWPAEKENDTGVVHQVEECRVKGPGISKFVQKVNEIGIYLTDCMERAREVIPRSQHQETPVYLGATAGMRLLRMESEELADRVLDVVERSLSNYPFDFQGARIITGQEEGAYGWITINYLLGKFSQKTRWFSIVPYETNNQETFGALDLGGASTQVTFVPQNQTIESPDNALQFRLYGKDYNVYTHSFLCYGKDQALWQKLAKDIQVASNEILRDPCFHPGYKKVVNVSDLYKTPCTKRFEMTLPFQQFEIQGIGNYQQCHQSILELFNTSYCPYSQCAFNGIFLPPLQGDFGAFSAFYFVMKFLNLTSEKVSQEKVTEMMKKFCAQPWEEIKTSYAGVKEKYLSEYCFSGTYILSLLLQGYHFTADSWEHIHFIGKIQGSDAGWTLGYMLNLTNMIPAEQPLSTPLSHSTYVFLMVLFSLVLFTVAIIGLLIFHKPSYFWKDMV
Description: FIG. 10A-10C depict effects of hCD39 knockdown on viability and ATP concentration in JIYOYE cells. JIYOYE cells were treated with the indicated antisense oligonucleotide A04040H (SEQ ID No.3) or neg1 for 6 days in total at 5 μM. Medium was replaced with fresh oligonucleotide-containing medium after 3 days and hCD39 protein knockdown efficacy was analyzed on day 6 by flow cytometry. Residual hCD39 expression and viability of oligonucleotide-treated cells is depicted compared to untreated cells (FIG. 10A-10B). After 6 days, 20 μM of the CD39 small molecular inhibitor ARL67156 trisodium salt was added to no ASO treated cells and incubated for 1 h at 37° C. Then, 2 μM of ATP was added to cells or cell culture medium without cells from each condition and ATP concentration of cell supernatants or cell culture medium was determined after 30 min using the ATP Bioluminescence Assay Kit (Roche) (FIG. 10C).
Adenosine is one major immunosuppressive molecule generated during ATP degradation by hCD39. ATP can be detected by an ATP Bioluminescence Assay (ATP Bioluminescence Assay Kit CLS II; Roche). JIYOYE cells were treated with 5 μM antisense oligonucleotide A04040H (SEQ ID No. 3) or the negative control oligonucleotide neg1 for 6 days (3+3). After 3 days, RPMI-1640 medium was replaced with fresh RPMI-1640 medium containing 5 μM of oligonucleotide. Protein knockdown efficacy (FIG. 10A) and viability (FIG. 10B) were analyzed after 6 days by flow cytometry. […] The same day, cells that were not treated with any antisense oligonucleotide were incubated for 1 hr at 37° C. with 20 μM of the CD39 small molecular inhibitor ARL67156 trisodium salt (TOCRIS). Then, 2 μM of ATP was added to cells or cell culture medium without cells derived from each condition and ATP concentration was measured in the cell supernatants or in cell culture medium after 30 min. […] Table 14 presents the effect of hCD39 knockdown on relative ATP levels in the cell culture supernatants of JIYOYE cells: […]

hCD39 protein = hCD39 protein expression in primary human CD8+ and CD4+ T cells after oligonucleotide removal (flow cytometry); conditions: 10 μM for six days with anti-CD3, compared to untreated control cells
Description: Thereafter, oligonucleotides and anti-CD3 were removed and hCD39 protein expression was analyzed by flow cytometry three, six, and eleven days after oligonucleotide removal. CD39 protein expression is depicted as mean fluorescence intensity (MFI) and was calculated by subtracting the MFI of the unspecific isotype control from the MFI of CD39. Depicted is the mean of duplicate wells+/−SD.
A04040H had shown very potent activity in suppressing hCD39 expression on mRNA- and protein-level in human cancer cell lines. In the next step, its activity in primary human T cells was investigated. Furthermore, the persistence of the effects after antisense oligonucleotide removal was examined. Therefore, CD8^+ and CD4^+ T cells were isolated from peripheral blood and activated for a total treatment time of six days with anti-CD3 in the presence of 10 μM of the hCD39 specific antisense oligonucleotide A04040H (black column) or the control oligonucleotide S6 (white column), which is not complementary to any human mRNA. […] Thereafter, oligonucleotides were removed and hCD39 protein expression was analyzed three, six, and eleven days after oligonucleotide removal by flow cytometry (FIG. 9).

CD39 protein = CD39 protein expression in human CD8+ T cells (flow cytometry, Example 11); conditions: 5 μM, 5 days, anti-CD3
Description: FIG. 12A-12C depict human CD8^+ T cells which were labelled with cell proliferation dye, activated with anti-CD3 and treated with 5 μM of the antisense oligonucleotide A04040H (black column) or the control oligonucleotide S6 (white column) for a total treatment time of 5 days. In the vehicle control (striped column), cells were activated with anti-CD3 only. Subsequently, 400 μM of ATP or vehicle were added to cells on day 3 and day 4 after start of oligonucleotide treatment. Furthermore, as additional control, the small molecular CD39-inhibitor ARL67156 trisodium salt was added at 20 μM to cells on day 4, for an incubation time of 24 h (checked column). On day 5 after start of oligonucleotide treatment, (FIG. 12A) CD39 protein expression, (FIG. 12B) proliferation and (FIG. 12C) absolute cell numbers of CD8^+ T cells were analyzed using Flow Cytometry. Depicted is the mean of triplicate wells+/−SD.
In cancer, ATP is released from tumor cells for example after cell death induced by chemotherapy or radiation therapy. Since the CD39-CD73 axis plays an important role for T cell function the effects of A04040H on T cell proliferation in the presence or absence of extracellular ATP were investigated. […] On day 5 after start of oligonucleotide treatment, CD39 protein expression, proliferation, and absolute cell numbers of CD8^+ T cells were analyzed using Flow Cytometry.

[1] = JIYOYE cells, 5 μM, 6 days, 2 μM ATP, 30 min

Row | Substance | Relative ATP levels in supernatants of JIYOYE cells 30 minutes after addition of ATP (vs. Medium control) (hCD39) | hCD39 protein expression (MFI) after oligonucleotide removal (hCD39 protein) | ATP concentration compared to cells treated with ARL67156 (hCD39; [1]) [×] | ATP concentration compared to cells treated with neg 1 (hCD39; [1]) | ATP degradation efficacy (hCD39; [1]) | CD39 protein expression (CD39 protein)
1 | +C*+G*+T*T*T*A*G*G*C*T*A*T*G*T*A*+C*+T*+T (CGTTTAGGCTATGTACTT; chemistry not fully specified) [neg1, negative control antisense oligonucleotide not hybridizing with CD39, described in WO2014154843 A1, reference compound] | 0.19 | – | – | – | – | –
2 | +G*+T*+T*T*G*T*G*T*G*A*G*A*G*C*+T*+T (antisense GTTTGTGTGAGAGCTT; sugars from the 5' end l3 d11 l2, all phosphorothioate, methylation of C not given here) [A04040H] | 0.76 | significantly suppressed hCD39 protein expression for a duration of at least six days after removal | 2 | about 4 × | nearly abolished | potently suppressed
